Data published in US10227310B2, “Ghrelin 0-acyl transferase inhibitors” (Eli Lilly and Company, priority 2015, dated 2019).
Each block holds one compound with its values, some of them ahead of it.

Key:
human GOAT = human GOAT (Homo sapiens (Human), UniProt Q96T53); test: In vitro cell free human GOAT enzymatic assay; format: biochemical; conditions: cell free human GOAT enzyme, ELISA readout of acyl-ghrelin
Experimental: Human GOAT gene (Accession number: NM_001100916) is subcloned to pAN51 baculoviral expression vector. Baculovirus stock is prepared following the Bac-to-Bac Protocol provided by the vendor, Invitrogen, California, USA. Five mililiters of human GOAT baculoviral stock are added to 500 mL Sf9 cells in HyQ SFX-Insect™ media (HyClone catalog number SH30278.02) at the density of 1×10^6 cells per milliliter in a 2 L Erlenmeyer flask. The flask with human GOAT gene infected Sf9 cells is put on a plate shaker at 120 rpm at 28° C. for 48 h. After 48 h incubation, cells are centrifuged at 1,000×g for 10 min at 4° C. The cell pellets are collected and stored at −80° C. in a freezer until ready for further processing.
Preparation of Microsomal Membrane of GOAT Enzyme for the Enzymatic Assay:
One gram cell pellets are suspended in 9 mL chilled homogenization buffer (50 mM Tris-HCl, 250 mM sucrose, adjusted to pH 7.5, and sterile filtered through 0.2 μm Millipore filter). The cell suspension is transferred to a Dounce glass homogenizer. Cell pellets are homogenized with 40 strokes on ice. The homogenate is centrifuged at 3,000 rpm in a Beckman swing bucket rotor at 4° C. for 10 min to remove unbroken cells. The supernatant is collected and centrifuged at 40,000×g for 1 h at 4° C. The resulting membrane pellet is suspended in the homogenization buffer using a Dounce glass homogenizer and stored at −20° C. in the freezer for the assay. For long term storage of the human GOAT enzyme membrane preparation, the suspended membrane is stored in a −80° C. freezer.
Human GOAT Enzymatic Assay Protocol:
Prepare test compounds in DMSO to make up a 0.2 mM stock solution. Serially dilute the stock solution in DMSO for ten concentrations with final compound concentrations ranging from 10 μM to 0.5 nM in a 96-well round-bottom plate. Prepare enzyme and substrate solutions in assay buffer (0.02% TWEEN™-20 in 50 mM Tris, pH 7.5 containing 250 mM sucrose, 1 mg/mL BSA and 10 mM EDTA). Add diluted compound (1 μL) to each well of row A to N of a corresponding low protein binding 384 well plate. […] Incubate the mixture for 1 h at RT on a gently rotating oscillator. Add 4 M guanidine hydrochloride (20 μL) to all wells, mix, and incubate for 3 h to stop the reaction.
Aspirate the blocking buffer from ELISA plate and add blocking buffer (23 μL) to columns 1-24, rows A-N. Reserve rows O and P for the acylghrelin standard curve. Add the reaction mixture (2 μL) to the ELISA plates. […] Incubate the reaction mixture or biotin-labeled AG standard in the ELISA plate overnight at 4° C. The following day, wash the plate 3× with wash buffer (0.1% TWEEN™-20/PBS, 100 μL per well in each wash cycle). […] Wash the plate 3× with the wash buffer, similarly to the previous step. Add Protein G-HRP (25 μL) (Southern Biotech) diluted 3,000× in blocking buffer and incubate 1 h at RT. Wash the late 3× with wash buffer, as in the previous steps. Add TMB reagent (25 μL) (Kirkegaard & Perry Laboratories, Inc.) to each well and let develop for 20 min and stop with 1 M phosphoric acid (25 μL per well). Read plates at 450 nm using an ENVISION® Multilabel plate reader. AG levels are calculated versus a fitted standard curve and percent inhibition calculated.

GOAT enzyme = GOAT enzyme (Mus musculus (Mouse), UniProt P0C7A3); test: In vivo dose dependent 3 day BID study for GOAT inhibitor (plasma AG, UAG by ELISA); design: species or system male C57BL/6 mice; conditions: mice; for decrease of plasma AG / increase of UAG / reduction in AG to total ghrelin ratio: 3 days; for decrease of plasma AG / increase of UAG: vs vehicle; for reduction in AG to total ghrelin ratio: vs vehicle-treated control animals; for AG (% of control) / AG/Total-ghrelin (% of vehicle control) / UAG (% of vehicle control): plasma
Experimental: Comparing the change in the ratio of AG to total ghrelin in the compound treated group and that of the vehicle treated group reflects the degree of GOAT enzyme inhibition in vivo, due to the dynamic processing of UAG to AG by the GOAT enzyme. In the in vivo pharmacodynamic studies herein, the levels of AG and UAG in plasma and stomach in the vehicle and compound treated groups are measured by ELISA specifically to these two analytes. The total ghrelin level of each sample is computed as the sum of AG and UAG by these ELISA measurements. The ratio of AG to total ghrelin is defined by the level of AG in each sample divided by the level of total ghrelin in the same sample. The levels of AG, UAG and ratio of AG to total ghrelin in the vehicle treated group is computed and set as 100%. The relative change of these parameters in the compound treated group is then computed to determine the effectiveness of the test compound.
Purchase male C57BL/6 mice from Harlan (Indianapolis, Ind.) at 9 weeks of age. House the mice individually in a temperature-controlled (24° C.) facility with a 12 h light/dark cycle (lights on 2200 h), and allow free access to a standard rodent chow (diet 2014, Harlan) and water. Typically, use the mice when they are 10-13 weeks of age at the time of the study. On day 0 of the experiment, randomize the mice into treatment groups (N=7/group) so each group has similar mean body weights. On day 1 and day 2, treat the animals with vehicle (1% hydroxyethylcellulose, 0.25% TWEEN™ 80, 0.05% antifoam) or test compound prepared in the vehicle as suspension at various dosages by oral gavage at 7 am and 7 pm. On day 3, fast the animals, move them into clean cages and dose with vehicle or the test compound again at 8 am by oral gavage. That same day at 1 pm, sacrifice the animals by decapitation to collect blood. For details of blood collection and plasma treatments see Blood collection and Extraction of Ghrelin from Plasma section below.
Collect approximately 600 μL blood into a pre-weighed EDTA tube containing 600 μL (defined as Vpreservative) freshly-prepared preservative (4 mM PEFABLOC® [4-(2-aminoethyl) benzenesulfonyl fluoride hydrochloride], 72 mM NaCl, 58 mM NaF, 0.032 N hydrochloric acid, pH 3.0) and mix immediately. Weigh the tube again and keep on ice. To accurately determine the exact blood volume of each sample using this blood collection procedure, the weight of the blood for each mouse is computed using the following equation: Weight of Blood=(Weight of the tube containing Blood+preservative)−(Weight of the tube containing preservative) Blood volume(Vblood)=(Weight of blood)/1.06
Within 15 minutes after the blood collection, samples are centrifuged at 5000 rpm at 4° C. for 8 min. Remove plasma (650 μL) to a 5 mL glass tube containing 1 N hydrochloric acid (65 μL), mix and keep on ice.
AG and UAG are extracted from plasma using SEP-PAK® C18 column to remove interference prior to performing the ELISA. The solid phase extraction of AG and UAG peptides by SEP-PAK® C18 columns can be performed on a vacuum manifold (Waters Corp) or using a peristaltic pump. The sample SEP-PAK® column extraction procedure is independently applied to the plasma sample obtained from each individual mouse. The general extraction protocol is described as follows.
All solutions used for the entire protocol of the SEP-PAK® column extraction should be at ice cold condition. Wet SEP-PAK®_columns (WAT054960, Waters Corp, Milford Mass.) with 99.9% ACN/0.1% TFA (1 mL of solution of 100 mL ACN/0.1 mL TFA). […] Once liquid is removed from the column, stop the pressure. Equilibrate the columns with 3% ACN/0.1% TFA (1 mL of 97 mL water, 3 mL ACN, 0.1 mL TFA). […] Dilute approximately 650 μL acidified plasma (defined as Vplasma added to column) to 1.4 mL ice cold 0.1% TFA. Load all diluted acidified plasma from the previous step onto the columns. […]

Sequence of human GOAT (Q96T53 whole entry): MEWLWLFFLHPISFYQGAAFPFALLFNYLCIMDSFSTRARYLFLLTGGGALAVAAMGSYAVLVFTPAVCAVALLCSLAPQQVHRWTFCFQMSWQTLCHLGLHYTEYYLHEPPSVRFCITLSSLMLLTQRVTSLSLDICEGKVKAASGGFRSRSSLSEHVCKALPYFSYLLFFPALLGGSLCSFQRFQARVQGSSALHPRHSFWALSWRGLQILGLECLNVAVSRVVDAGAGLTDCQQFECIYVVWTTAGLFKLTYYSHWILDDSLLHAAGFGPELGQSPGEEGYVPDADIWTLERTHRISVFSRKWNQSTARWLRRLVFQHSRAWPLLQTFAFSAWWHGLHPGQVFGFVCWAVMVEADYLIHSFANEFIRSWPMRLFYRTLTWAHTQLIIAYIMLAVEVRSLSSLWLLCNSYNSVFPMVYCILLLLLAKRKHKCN
Sequence of GOAT enzyme (P0C7A3 whole entry): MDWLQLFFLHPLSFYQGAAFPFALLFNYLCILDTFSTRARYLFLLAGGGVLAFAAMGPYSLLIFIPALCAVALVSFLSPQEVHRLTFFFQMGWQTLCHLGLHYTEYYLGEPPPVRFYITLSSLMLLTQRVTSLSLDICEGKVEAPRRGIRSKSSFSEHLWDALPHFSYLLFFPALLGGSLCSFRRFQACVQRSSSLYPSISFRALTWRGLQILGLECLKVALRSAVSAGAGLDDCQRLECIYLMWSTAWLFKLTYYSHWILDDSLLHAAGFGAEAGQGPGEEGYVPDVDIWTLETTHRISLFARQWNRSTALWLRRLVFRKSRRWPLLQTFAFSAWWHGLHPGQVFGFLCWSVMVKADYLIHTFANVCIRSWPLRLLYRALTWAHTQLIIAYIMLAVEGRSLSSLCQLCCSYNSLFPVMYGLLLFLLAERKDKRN

- IC50 (human GOAT): 54.4 nM
Compound: Cc1nc(Cl)nc(N)c1CCC1CCN(C(=O)[C@H](C)NC(=O)c2cn[nH]c2C)CC1 [Example 2, N-[(1S)-2-[4-[2-(4-Amino-2-chloro-6-methyl-pyrimidin-5-yl)ethyl]-1-piperidyl]-1-methyl-2-oxo-ethyl]-5-methyl-1H-pyrazole-4-carboxamide]

- decrease of plasma AG (GOAT enzyme; 0.3 mg/kg): 51%
- increase of UAG (GOAT enzyme; 0.3 mg/kg): 1.61 fold
- reduction in AG to total ghrelin ratio (GOAT enzyme; 0.3 mg/kg): 61%
- decrease of plasma AG (GOAT enzyme; 1 mg/kg): 57%
- increase of UAG (GOAT enzyme; 1 mg/kg): 2.04 fold
- reduction in AG to total ghrelin ratio (GOAT enzyme; 1 mg/kg): 73%
- decrease of plasma AG (GOAT enzyme; 3 mg/kg): 70%
- increase of UAG (GOAT enzyme; 3 mg/kg): 2.00 fold
- reduction in AG to total ghrelin ratio (GOAT enzyme; 3 mg/kg): 81%
- AG (% of control) (GOAT enzyme; 0.3 mg/kg oral BID 3 days): 49 ± 7 (n = 7) % of control
- AG/Total-ghrelin (% of vehicle control) (GOAT enzyme; 0.3 mg/kg oral BID 3 days): 39 ± 2 (n = 7) % of vehicle control
- UAG (% of vehicle control) (GOAT enzyme; 0.3 mg/kg oral BID 3 days): 161 ± 24 (n = 7) % of vehicle control
- AG (% of control) (GOAT enzyme; 1 mg/kg oral BID 3 days): 43 ± 6 (n = 7) % of control
- AG/Total-ghrelin (% of vehicle control) (GOAT enzyme; 1 mg/kg oral BID 3 days): 27 ± 1 (n = 7) % of vehicle control
- UAG (% of vehicle control) (GOAT enzyme; 1 mg/kg oral BID 3 days): 204 ± 24 (n = 7) % of vehicle control
- AG (% of control) (GOAT enzyme; 3 mg/kg oral BID 3 days): 30 ± 4 (n = 7) % of control
- AG/Total-ghrelin (% of vehicle control) (GOAT enzyme; 3 mg/kg oral BID 3 days): 19 ± 1 (n = 7) % of vehicle control
- UAG (% of vehicle control) (GOAT enzyme; 3 mg/kg oral BID 3 days): 200 ± 20 (n = 7) % of vehicle control
- IC50 (human GOAT): 96.4 ± 28.3 nM
Compound: Cc1nc(N)c(CCC2CCN(C(=O)[C@H](C)NC(=O)c3cnc(C)s3)CC2)c(Cl)n1 [Example 42, N-[(1S)-2-[4-[2-(4-Amino-6-chloro-2-methyl-pyrimidin-5-yl)ethyl]-1-piperidyl]-1-methyl-2-oxo-ethyl]-2-methyl-thiazole-5-carboxamide]

- decrease of plasma AG (GOAT enzyme; 0.2 mg/kg): 34%
- increase of UAG (GOAT enzyme; 0.2 mg/kg): 2.13 fold
- reduction in AG to total ghrelin ratio (GOAT enzyme; 0.2 mg/kg): 50%
- decrease of plasma AG (GOAT enzyme; 0.6 mg/kg): 52%
- increase of UAG (GOAT enzyme; 0.6 mg/kg): 2.61 fold
- reduction in AG to total ghrelin ratio (GOAT enzyme; 0.6 mg/kg): 65%
- decrease of plasma AG (GOAT enzyme; 2 mg/kg): 72%
- increase of UAG (GOAT enzyme; 2 mg/kg): 2.92 fold
- reduction in AG to total ghrelin ratio (GOAT enzyme; 2 mg/kg): 79%
- decrease of plasma AG (GOAT enzyme; 6 mg/kg): 79%
- increase of UAG (GOAT enzyme; 6 mg/kg): 3.02 fold
- reduction in AG to total ghrelin ratio (GOAT enzyme; 6 mg/kg): 84%
- decrease of plasma AG (GOAT enzyme; 18 mg/kg): 81%
- increase of UAG (GOAT enzyme; 18 mg/kg): 2.79 fold
- reduction in AG to total ghrelin ratio (GOAT enzyme; 18 mg/kg): 86%
- AG (% of control) (GOAT enzyme; 0.2 mg/kg oral BID 3 days): 66 ± 12 (n = 7) % of control
- AG/Total-ghrelin (% of vehicle control) (GOAT enzyme; 0.2 mg/kg oral BID 3 days): 50 ± 3 (n = 7) % of vehicle control
- UAG (% of vehicle control) (GOAT enzyme; 0.2 mg/kg oral BID 3 days): 213 ± 27 (n = 7) % of vehicle control
- AG (% of control) (GOAT enzyme; 0.6 mg/kg oral BID 3 days): 48 ± 4 (n = 7) % of control
- AG/Total-ghrelin (% of vehicle control) (GOAT enzyme; 0.6 mg/kg oral BID 3 days): 35 ± 1 (n = 7) % of vehicle control
- UAG (% of vehicle control) (GOAT enzyme; 0.6 mg/kg oral BID 3 days): 261 ± 30 (n = 7) % of vehicle control
- AG (% of control) (GOAT enzyme; 2 mg/kg oral BID 3 days): 28 ± 3 (n = 14) % of control
- AG/Total-ghrelin (% of vehicle control) (GOAT enzyme; 2 mg/kg oral BID 3 days): 21 ± 1 (n = 14) % of vehicle control
- UAG (% of vehicle control) (GOAT enzyme; 2 mg/kg oral BID 3 days): 292 ± 43 (n = 14) % of vehicle control
- AG (% of control) (GOAT enzyme; 6 mg/kg oral BID 3 days): 21 ± 3 (n = 7) % of control
- AG/Total-ghrelin (% of vehicle control) (GOAT enzyme; 6 mg/kg oral BID 3 days): 16 ± 1 (n = 7) % of vehicle control
- UAG (% of vehicle control) (GOAT enzyme; 6 mg/kg oral BID 3 days): 302 ± 48 (n = 7) % of vehicle control
- AG (% of control) (GOAT enzyme; 18 mg/kg oral BID 3 days): 19 ± 6 (n = 7) % of control
- AG/Total-ghrelin (% of vehicle control) (GOAT enzyme; 18 mg/kg oral BID 3 days): 14 ± 2 (n = 7) % of vehicle control
- UAG (% of vehicle control) (GOAT enzyme; 18 mg/kg oral BID 3 days): 279 ± 36 (n = 7) % of vehicle control
- IC50 (human GOAT): 68.9 ± 23.6 nM
Compound: Cc1nc(N)c(CCC2CCN(C(=O)[C@H](C)NC(=O)c3ccnn3C)CC2)c(Cl)n1 [Example 66, N-[(1S)-2-[4-[2-(4-Amino-6-chloro-2-methyl-pyrimidin-5-yl)ethyl]-1-piperidyl]-1-methyl-2-oxo-ethyl]-2-methyl-pyrazole-3-carboxamide]

The next lines start with the compound.

Compound: Cc1nc(N)c(CCC2CCCN(C(=O)[C@H](C)NC(=O)c3ccncc3)CC2)c(Cl)n1 (stereo partly drawn) [Example 37, N-[(1S)-2-[(4R,S)-4-[2-(4-Amino-6-chloro-2-methyl-pyrimidin-5-yl)ethyl]azepan-1-yl]-1-methyl-2-oxo-ethyl] pyridine-4-carboxamide]
- IC50 (human GOAT): 574 nM

Compound: COC(=O)N[C@@H](C)C(=O)N1CCC(CCc2c(N)nc(C)nc2Cl)CC1 [Example 71, Methyl N-[(1S)-2-[4-[2-(4-amino-6-chloro-2-methyl-pyrimidin-5-yl)ethyl]-1-piperidyl]-1-methyl-2-oxo-ethyl]carbamate]
- decrease of plasma AG (GOAT enzyme; 0.3 mg/kg): 13%
- increase of UAG (GOAT enzyme; 0.3 mg/kg): 2.87 fold
- reduction in AG to total ghrelin ratio (GOAT enzyme; 0.3 mg/kg): 59%
- decrease of plasma AG (GOAT enzyme; 1 mg/kg): 37%
- increase of UAG (GOAT enzyme; 1 mg/kg): 3.44 fold
- reduction in AG to total ghrelin ratio (GOAT enzyme; 1 mg/kg): 73%
- decrease of plasma AG (GOAT enzyme; 3 mg/kg): 66%
- increase of UAG (GOAT enzyme; 3 mg/kg): 2.90 fold
- reduction in AG to total ghrelin ratio (GOAT enzyme; 3 mg/kg): 82%
- AG (% of control) (GOAT enzyme; 0.3 mg/kg oral BID 3 days): 87 ± 18 (n = 7) % of control
- AG/Total-ghrelin (% of vehicle control) (GOAT enzyme; 0.3 mg/kg oral BID 3 days): 41 ± 3 (n = 7) % of vehicle control
- UAG (% of vehicle control) (GOAT enzyme; 0.3 mg/kg oral BID 3 days): 287 ± 43 (n = 7) % of vehicle control
- AG (% of control) (GOAT enzyme; 1 mg/kg oral BID 3 days): 63 ± 15 (n = 7) % of control
- AG/Total-ghrelin (% of vehicle control) (GOAT enzyme; 1 mg/kg oral BID 3 days): 27 ± 2 (n = 7) % of vehicle control
- UAG (% of vehicle control) (GOAT enzyme; 1 mg/kg oral BID 3 days): 344 ± 63 (n = 7) % of vehicle control
- AG (% of control) (GOAT enzyme; 3 mg/kg oral BID 3 days): 34 ± 5 (n = 7) % of control
- AG/Total-ghrelin (% of vehicle control) (GOAT enzyme; 3 mg/kg oral BID 3 days): 18 ± 1 (n = 7) % of vehicle control
- UAG (% of vehicle control) (GOAT enzyme; 3 mg/kg oral BID 3 days): 290 ± 30 (n = 7) % of vehicle control
- IC50 (human GOAT): 149 ± 46 nM
